Measurements as given in patent publication US10688099B2, “Methods for modulating the amount of RNA transcripts” (PTC Therapeutics, Inc., priority 2013, dated 2020).

System: RNA isoforms in PNN 1-46 SMA type I patient-derived fibroblasts
Assay: RNA Abundance Modulation (RNA isoform abundance, iFPM, HiSeq RNA sequencing)
Format: cell-based, human
Details: 24 hrs, PNN 1-46 fibroblasts
Procedure: Cells from a cell line of interest are cultured in conditions sufficient to yield the number of cells capable of generating enough RNA for subsequent sequencing steps. Cells from the tested cell line are contacted with a compound described herein.
To culture said cells, they are seeded, at appropriate concentrations in a volume of media in a cell culture container and incubated for 4, 5, 6, 7, 8, 9, 10, or more hours. A concentrated solution of compound in a vehicle (e.g., DMSO) is then added in sufficient volume to result in the intended final concentration of the compound, for example 100 nM, 500 nM, 1 μM, 5 μM, 10 μM, 15 μM, 20 μM, or more. The cells may also be treated with vehicle alone, as a control. A number of replicates of each concentration or control may be made (e.g., 2 replicates). The cells are then incubated at a constant temperature appropriate for cell culture of the particular cell line (e.g., 37° C.) for 6, 12, 18, 24, 48, or more hours. After incubation, the growth medium is removed and the cells are washed with the appropriate buffer (e.g., PBS). Cells are then removed from adherence to the cell culture container by treatment with a solution containing trypsin, and the trypsin subsequently quenched with the appropriate volume of buffer (e.g., DMEM-FBS). The cells are then pelleted with gentle centrifugation (e.g., ≤90×g centrifugal force) and resuspended in a buffer to lyse the cells for extraction of RNA. The cell lysates may then be frozen (e.g., at −80° C.) or, alternately, may immediately be used in a procedure to purify the RNA (e.g. by use of the RNEASY PLUS® minikit). The RNA from cell lysates is eluted in the appropriate volume of buffer (e.g., RNEASE-FREE H2O®). The resulting purified RNA may then be sequenced (e.g., using RNASeq) or analyzed using a human exon array (e.g., by GENECHIP® human exon array) to determine changes in the RNA levels in those cells treated with compound compared to those cells treated only with DMSO. The purified RNA may also be quantified by other methods known in the art.
Using the RNA data obtained from sequencing, exon array, or other methods, a statistical analysis can reveal changes in the RNA levels of compound-treated compared with control. For example, t-test p-values may be calculated for the data obtained through sequencing and exon array methods in order to compare compound-treated cells to those treated with the DMSO control. […] Analysis of the sequencing and exon array data may then also yield predictions about the cause of the aberrant amount of an RNA transcript in the cells (e.g., perturbation of RNA splicing, RNA transcription, or RNA stability). These predictions may be further confirmed by methods known in the art. For example, RT-PCR and RT-qPCR may be used to confirm the change in amount of RNA transcripts for one or more particular transcripts of interest.
Following the methods described above in Example 1, PNN 1-46 SMA type I patient-derived fibroblasts were treated with 300 nM or 3 μM Compounds 774 and 808 in 0.5% DMSO.
700,000 cells were seeded in 10 mL of medium (DMEM plus 10% FBS) in a T-75 flask. Cells were allowed to attach for at least 4 hrs, after which 50 μL of a 200× compound solution (100% DMSO) was added to each well, and the plate was incubated at 37° C. for 24 hrs.
At the end of the incubation period, the supernatant was removed and the cells where washed with PBS. TrypLE (Invitrogen) express solution was added (e.g. 1.5 mL per one T75 flask). The flasks were incubated for 3 to 5 min at 37° C. The trypsin was then quenched, e.g., by adding 10 mL DMEM-FBS.
Next, the cells were pelleted using gentle centrifugation without exceeding 90×g centrifugal force. The supernatant was removed and the cell pellet was re-suspended in 600 μL RLT buffer (the RLT buffer was supplemented with beta-mercaptoethanol according to the RNeasy protocol manual) by pipetting up and down until the pellet was completely dissolved […]

Cc1cn2cc(-c3cc(=O)n4cc(N5CCN(C)CC5)ccc4n3)cc(C)c2n1 [Compound 808]
RNA abundance modulation (effect on isoform fold increase) (0.3 μM): modulates RNA abundance | RNA abundance modulation (effect on isoform fold increase) (3 μM): modulates RNA abundance
